# Results: article PMC4762250, “Novel cis-selective and non-epimerisable C3 hydroxy azapodophyllotoxins targeting microtubules in cancer cells” (European Journal of Medicinal Chemistry, 2016)
# Entries after “also recorded” stand apart in the source; their conditions may differ. Read-outs that look alike come from different tables or passages of the source.
# Tests used:
# [1] = tested on: human breast cancer cell line MCF-7; assay: Oncotest propidium iodide monolayer cell proliferation assay, MCF-7; type: cell-based; settings: mean absolute IC50, 96 h treatment, propidium iodide endpoint, triplicate, read-out: MCF-7 IC50
# Experimental: (§1) The anticancer activity of compounds (8a-q) was evaluated using the Oncotest monolayer assay in the human prostate cancer cell line 22Rv1 and the human breast cancer cell line MCF-7, as an outsourced service. […] Antitumour activity was assessed after four days of treatment with the compounds using a propidium iodide based monolayer assay. Potency is expressed as absolute IC50 values, calculated by non-linear regression analysis following testing in triplicate. The seventeen inhibitors were tested at 10 concentrations in half-log increments up to 100 μM in triplicate.
# (§2) A modified propidium iodide (PI) based monolayer assay was used to assess the anti-cancer activity of the compounds. Briefly, cells were harvested from exponential phase cultures, counted and plated in 96-well flat-bottom microtiter plates at a cell density of 8.000–12.000 cells/well. After a 24 h recovery period to allow the cells to resume exponential growth, 10 μl of culture medium (six control wells/plate) or culture medium with test compound were added. The compounds were applied in half-log increments at 10 concentrations in triplicate. After a total treatment period of 96 h, cells were washed with 200 μl PBS to remove dead cells and debris. Then, 200 μl of a solution containing 7 μg/mL propidium iodide (PI) was added. After an incubation period of 1–2 h at room temperature, fluorescence (FU) was measured using the EnSpire Multimode Plate Reader (excitation λ = 530 nm, emission λ = 620 nm) to quantify the amount of attached viable cells. IC50 values were calculated by 4-parameter non-linear curve fit using Oncotest Warehouse Software. For calculation of mean IC50 values the geometric mean was used.
# [2] = tested on: human prostate cancer cell line 22Rv1; assay: Oncotest propidium iodide monolayer cell proliferation assay, 22Rv1; type: cell-based; settings: mean absolute IC50, 96 h treatment, propidium iodide endpoint, triplicate
# Experimental: as §1, §2
# MCF-7 and 22Rv1 = assay: Oncotest monolayer assay, results stated over both cell lines; type: cell-based, human; settings: for IC50: Homo sapiens, geometric mean over MCF-7 and 22Rv1, read-out: Mean IC50 values; for antiproliferative activity (in words): MCF-7 and 22Rv1
# Experimental: as §1, §2
SMILES,"IC50 ([1]; Homo sapiens, MCF7, 96 h)","IC50 ([2]; Homo sapiens, 22Rv1, 96 h)",IC50 (MCF-7 and 22Rv1),IC50 [1],IC50 [2],antiproliferative activity (in words) (MCF-7 and 22Rv1)
"O=C1OC[C@]2(O)Nc3c(c4cccnc4c4ncccc34)[C@@H](c3ccc(SC(F)(F)F)cc3)[C@@H]12 (mixture of isomers) [Compound 8i, (9aS, 12aR, 13R) and (9aR, 12aS, 13S) 9a-hydroxy-13-(4-((trifluoromethyl)thio)phenyl)-9a,10,12a,13-tetrahydrofuro[3,4-b]pyrido [3,2-f][1,10]phenanthrolin-12(9H)-one]",2300 nM,894 nM,< 10000 nM,–,–,–
"O=C1OC[C@]2(O)Nc3c(c4cccnc4c4ncccc34)[C@@H](c3cccc(C(F)(F)F)c3)[C@@H]12 (mixture of isomers) [Compound 8f, (9aS, 12aR, 13R) and (9aR, 12aS, 13S) 9a-hydroxy-13-(3-(trifluoromethyl)phenyl)-9a,10,12a,13-tetrahydrofuro[3,4-b]pyrido[3,2-f][1,10]phenanthrolin-12(9H)-one]",825 nM,510 nM,500 to 1000 nM,–,–,–
"O=C1OC[C@]2(O)Nc3c(c4cccnc4c4ncccc34)[C@@H](c3ccc(OC(F)F)cc3)[C@@H]12 (mixture of isomers) [Compound 8l, (9aS, 12aR, 13R) and (9aR, 12aS, 13S) 13-(4-(difluoromethoxy)phenyl)-9a-hydroxy-9a,10,12a,13-tetrahydrofuro[3,4-b]pyrido[3,2-f][1,10]phenanthrolin-12(9H)-one]",901 nM,719 nM,500 to 1000 nM,–,–,–
"Cc1ccc(OC(F)(F)F)cc1[C@@H]1c2c(c3cccnc3c3ncccc23)N[C@@]2(O)COC(=O)[C@H]12 (mixture of isomers) [Compound 8m, (9aS, 12aR, 13R) and (9aR, 12aS, 13S) 9a-hydroxy-13-(2-methyl-5-(trifluoromethoxy)phenyl)-9a,10,12a,13-tetrahydrofuro[3,4-b]pyrido[3,2-f][1,10]phenanthrolin-12(9H)-one]",3310 nM,2840 nM,< 10000 nM,–,–,–
"COc1cc([C@@H]2c3c(c4cccnc4c4ncccc34)N[C@@]3(O)COC(=O)[C@H]23)cc2c1OCO2 (mixture of isomers) [Compound 8p, (9aS, 12aR, 13R) and (9aR, 12aS, 13S) 9a-hydroxy-13-((5-methoxy-3,4-methylenedioxy)phenyl)-9a,10,12a,13-tetrahydrofuro[3,4-b]pyrido[3,2-f][1,10]phenanthrolin-12(9H)-one]",7300 nM,4000 nM,< 10000 nM,7250 nM,4000 nM,–
"O=C1OC[C@]2(O)Nc3c(c4cccnc4c4ncccc34)[C@@H](c3ccc4c(c3)OC(F)(F)O4)[C@@H]12 (mixture of isomers) [Compound 8q, (9aS, 12aR, 13R) and (9aR, 12aS, 13S) 13-((3,4-difluoromethylenedioxy)phenyl)-9a-hydroxy-9a,10,12a,13-tetrahydrofuro[3,4-b]pyrido[3,2-f][1,10]phenanthrolin-12(9H)-one]",910 nM,520 nM,500 to 1000 nM,–,–,submicromolar activity
"O=C1OC[C@]2(O)Nc3c(c4cccnc4c4ncccc34)[C@@H](c3ccc(S(F)(F)(F)(F)F)cc3)[C@@H]12 (mixture of isomers) [Compound 8n, (9aS, 12aR, 13R) and (9aR, 12aS, 13S) 9a-hydroxy-13-(4-(pentafluorosulfanyl)phenyl)-9a,10,12a,13-tetrahydrofuro[3,4-b]pyrido[3,2-f][1,10] phenanthrolin-12(9H)-one]",857 nM,590 nM,500 to 1000 nM,–,–,submicromolar activity

# Compounds with a lower IC50 ([1]; Homo sapiens, MCF7, 96 h), results first:
"IC50 ([1]; Homo sapiens, MCF7, 96 h)","IC50 ([2]; Homo sapiens, 22Rv1, 96 h)",IC50 (MCF-7 and 22Rv1),IC50 [1],IC50 [2],SMILES,antiproliferative activity (in words) (MCF-7 and 22Rv1)
648 nM,855 nM,500 to 1000 nM,–,–,"CSc1ccc([C@@H]2c3c(c4cccnc4c4ncccc34)N[C@@]3(O)COC(=O)[C@H]23)cc1 (mixture of isomers) [Compound 8a, (9aS, 12aR, 13R) and (9aR, 12aS, 13S) 9a-hydroxy-13-(4-(methylthio)phenyl)-9a,10,12a,13-tetrahydrofuro[3,4-b]pyrido[3,2-f][1,10]phenanthrolin-12(9H)-one]",–
643 nM,380 nM,< 500 nM,–,–,"O=C1OC[C@]2(O)Nc3c(c4cccnc4c4ncccc34)[C@@H](c3cc(C(F)(F)F)cc(C(F)(F)F)c3)[C@@H]12 (mixture of isomers) [Compound 8j, (9aS, 12aR, 13R) and (9aR, 12aS, 13S) 13-(3,5-bis(trifluoromethyl)phenyl)-9a-hydroxy-9a,10,12a,13-tetrahydrofuro[3,4-b]pyrido[3,2-f][1,10] phenanthrolin-12(9H)-one]",submicromolar activity
589 nM,311 nM,< 500 nM,–,–,"O=C1OC[C@]2(O)Nc3c(c4cccnc4c4ncccc34)[C@@H](c3cccc(S(F)(F)(F)(F)F)c3)[C@@H]12 (mixture of isomers) [Compound 8g, (9aS, 12aR, 13R) and (9aR, 12aS, 13S) 9a-hydroxy-13-(3-(pentafluorosulfanyl)phenyl)-9a,10,12a,13-tetrahydrofuro[3,4-b]pyrido[3,2-f][1,10]phenanthrolin-12(9H)-one]",more active than etoposide in both cell lines; also recorded: submicromolar activity
475 nM,242 nM,< 500 nM,–,–,"Cc1cc(OC(F)(F)F)cc([C@@H]2c3c(c4cccnc4c4ncccc34)N[C@@]3(O)COC(=O)[C@H]23)c1 (mixture of isomers) [Compound 8h, (9aS, 12aR, 13R) and (9aR, 12aS, 13S) 9a-hydroxy-13-(3-methyl-5-trifluoromethoxyphenyl)-9a,10,12a,13-tetrahydrofuro[3,4-b]pyrido[3,2-f][1,10] phenanthrolin-12(9H)-one]",more active than etoposide in both cell lines
466 nM,257 nM,–,–,–,"O=C1OC[C@]2(O)Nc3c(c4cccnc4c4ncccc34)[C@@H](c3cccc(OC(F)(F)F)c3)[C@@H]12 (mixture of isomers) [Compound 8c, (9aS, 12aR, 13R) and (9aR, 12aS, 13S) 9a-hydroxy-13-(3-(trifluoromethoxy)phenyl)-9a,10,12a,13-tetrahydrofuro[3,4-b]pyrido[3,2-f][1,10]phenanthrolin-12(9H)-one]",–
424 nM,239 nM,–,–,–,"O=C1OC[C@]2(O)Nc3c(c4cccnc4c4ncccc34)[C@@H](c3ccc(OC(F)(F)F)cc3)[C@@H]12 (mixture of isomers) [Compound 8d, (9aS, 12aR, 13R) and (9aR, 12aS, 13S) 9a-hydroxy-13-(4-(trifluoromethoxy)phenyl)-9a,10,12a,13-tetrahydrofuro[3,4-b]pyrido[3,2-f][1,10]phenanthrolin-12(9H)-one]",–
355 nM,295 nM,< 500 nM,–,–,"CCOc1ccc([C@@H]2c3c(c4cccnc4c4ncccc34)N[C@@]3(O)COC(=O)[C@H]23)cc1C(F)(F)F (mixture of isomers) [Compound 8k, (9aS, 12aR, 13R) and (9aR, 12aS, 13S) 13-(4-ethoxy-3-(trifluoromethyl)phenyl)-9a-hydroxy-9a,10,12a,13-tetrahydrofuro[3,4-b]pyrido[3,2-f][1,10] phenanthrolin-12(9H)-one]",more active than etoposide in both cell lines
